The results in this text go back to ChEMBL document CHEMBL1122334, “New azacannabinoids highly active in the central nervous system” (1983).

What all share (format): functional
The subject of test [1] is Rattus norvegicus. Nature of the test: The compound was tested for decreasing motor activity in rat at a dose of 80 mg/Kg.
In test [2] the test system is Rattus norvegicus. Nature of the test: The compound was tested for methamphetamine antagonism in rat at a dose of 20 mg/Kg.
The test system of test [3] is Rattus norvegicus. Nature of the test: The compound was tested for serotonin antagonism in rat at a dose of 20 mg/Kg.
Test [4] has as its system Rattus norvegicus. In words: The compound was tested for serotonin antagonism in rat at a dose of 5 mg/Kg.
The next test has as its system Mus musculus. In words: The compound was tested for analgesic activity using writhing (W) test in mouse at a dose of 10 mg/Kg. Background: Writhing tests count abdominal constrictions after an irritant is injected.
Test [5] deals with Rattus norvegicus. In words: The compound was tested for methamphetamine antagonism in rat at a dose of 80 mg/Kg.
For test [6], the system named is Rattus norvegicus. In words: The compound was tested for hyperexcitability in rat at a dose of 20 mg/Kg.
Test [7] concerns Rattus norvegicus. In words: The compound was tested for hyperexcitability in rat at a dose of 80 mg/Kg.
Test [8] has as its system Rattus norvegicus. In words: The compound was tested for decreasing motor activity in rat. at a dose of 5 mg/Kg.
Test [9] relates to Rattus norvegicus. In words: The compound was tested for methamphetamine antagonism in rat at a dose of 5 mg/Kg.
The test system of test [10] is Rattus norvegicus. Nature of the test: The compound was tested for hyperexcitability in rat at a dose of 5 mg/Kg.
The subject of test [11] is Rattus norvegicus. In words: The compound was tested for decreasing motor activity in rat at a dose of 20 mg/Kg.
In test [12] the test system is Rattus norvegicus. Nature of the test: The compound was tested for serotonin antagonism in rat at a dose of 80 mg/Kg.
The test system of test [13] is Rattus norvegicus. In words: The compound was tested for decreasing motor activity in rat at a dose of 5 mg/Kg.

Take `CCCCCC(C)C(C)c1cc(O)c2c(c1)OC(C)(C)C1=C2CN(CCC(N)=O)CC1` (centres undefined): the Decrease in activity in the test with Rattus norvegicus [1] is 83%; in the test on Rattus norvegicus [2] it was 17%; with Rattus norvegicus [3], -13%; with Rattus norvegicus [4] it was -73%; in the test on Rattus norvegicus [5] it was 13%; in the test with Rattus norvegicus [8] it was 49%. For the same molecule, the Decrease in activity in the test on Rattus norvegicus [9] is on record as -4%; in the test with Rattus norvegicus [11], 65%; in the test on Rattus norvegicus [12], -71%. The molecule also showed an increase in response in the test with Mus musculus of 0%. The Possible response stood at 0% with Rattus norvegicus [6], 67% in the test on Rattus norvegicus [7] and 0% with Rattus norvegicus [10].
`CCCCCC(C)C(C)c1cc(O)c2c(c1)OC(C)(C)C1=C2CN(CC(=O)NC(=O)NC)CC1` (centres undefined): the Decrease in activity in the test on Rattus norvegicus [1] came to 88%; in the test on Rattus norvegicus [2] it was 66%; with Rattus norvegicus [3] it was 50%; in the test on Rattus norvegicus [4], 34%; in the test with Rattus norvegicus [13], 63%; in the test on Rattus norvegicus [5] it was 54%. The Decrease in activity in the test with Rattus norvegicus [9] is 38%; in the test with Rattus norvegicus [11] it was 68%; in the test with Rattus norvegicus [12] it was 89%. Further, the Possible response in the test with Rattus norvegicus [6] came out at 71%; in the test on Rattus norvegicus [7], 81%; in the test on Rattus norvegicus [10], 35%.
As for `CCCCCC(C)C(C)c1cc(O)c2c(c1)OC(C)(C)C1=C2CN(CC(=O)NC(=O)Nc2ccccc2)CC1` (centres undefined), the Decrease in activity is reported as 51% in the test on Rattus norvegicus [1]; -24% in the test with Rattus norvegicus [2]; -15% in the test with Rattus norvegicus [3]; -56% with Rattus norvegicus [4]; 37% with Rattus norvegicus [13]; -28% in the test on Rattus norvegicus [5]. Also, the Decrease in activity with Rattus norvegicus [9] is -37%; in the test on Rattus norvegicus [11] it was 42%; in the test on Rattus norvegicus [12], -17%. For the same molecule, the Possible response with Rattus norvegicus [6], in the test on Rattus norvegicus [7] and in the test with Rattus norvegicus [10] was 0% in each case.
For the molecule `CCCCCC(C)C(C)c1cc(O)c2c(c1)OC(C)(C)C1=C2CN(C(C)C(=O)NC(N)=O)CC1` (centres undefined), the Decrease in activity is 83% in the test on Rattus norvegicus [1]; 50% in the test with Rattus norvegicus [2]; 43% with Rattus norvegicus [3]; 11% with Rattus norvegicus [4]; 67% in the test on Rattus norvegicus [13]; 81% with Rattus norvegicus [5]. For the same molecule, the values for the Decrease in activity with Rattus norvegicus [9], with Rattus norvegicus [11] and in the test on Rattus norvegicus [12] were 47%, 67% and 98%, respectively. Moreover, the Possible response with Rattus norvegicus [6] turned out to be 63%; in the test on Rattus norvegicus [7] it was 77%; in the test with Rattus norvegicus [10], 50%.
On to `CC(CCCc1ccc(F)cc1)c1cc(O)c2c(c1)OC(C)(C)C1=C2CN(CC(=O)NCC(N)=O)CC1` (centres undefined), for which the Decrease in activity is 9% with Rattus norvegicus [1]; 2% with Rattus norvegicus [2]; -10% with Rattus norvegicus [3]; -17% in the test on Rattus norvegicus [4]; -11% with Rattus norvegicus [13]; 25% in the test with Rattus norvegicus [5]. The results for the Decrease in activity in the test with Rattus norvegicus [9], in the test with Rattus norvegicus [11] and in the test on Rattus norvegicus [12] were 1%, 12% and 26%, respectively. Further, the Possible response in the test with Rattus norvegicus [6], with Rattus norvegicus [7] and in the test with Rattus norvegicus [10] was 0% each time.
Regarding `CCCCCC(C)C(C)c1cc(O)c2c(c1)OC(C)(C)C1=C2CN(CC(=O)Nc2ccccc2)CC1` (centres undefined), the Decrease in activity in the test with Rattus norvegicus [1] is given as 6%; with Rattus norvegicus [2] it was 15%; in the test on Rattus norvegicus [3] it was -28%; in the test with Rattus norvegicus [4], 3%; in the test on Rattus norvegicus [13], 4%; in the test on Rattus norvegicus [5], -9%. Besides, the results for the Decrease in activity in the test on Rattus norvegicus [9], in the test with Rattus norvegicus [11] and with Rattus norvegicus [12] were 0%, 18% and -13%, respectively. Also, in the test with Mus musculus, the increase in response turned out to be 12%. For the same molecule, the Possible response in the test with Rattus norvegicus [6], with Rattus norvegicus [7] and in the test with Rattus norvegicus [10] was 0% each time.
